Experimental findings from ChEMBL document CHEMBL1208700, “Anibamine, a natural product CCR5 antagonist, as a novel lead for the development of anti-prostate cancer agents” (Bioorg Med Chem Lett, 2010) are described below.

Structures are written as SMILES. Calls of active or inactive are those of the source. The calls are words filed in the database; no cut-off is given here.

The test system of data set [1] is M12. Put plainly: Reversal of disorganized beta-1 integrin in human M12 cells at 1 uM after 8 days by confocal immunofluorescence microscopy. It counts as functional, cell-based.
A short description of data set [2]: Toxicity in sheep RBC assessed as hemolysis at 1 uM after 60 mins. The note with it: erythrocyte, 1 h. It counts as cell-based, Ovis aries.
The subject of data set [3] is M12. In words: Reversal of 3D IrECM gel-induced morphological changes in human M12 cells at 500 nM to 1 uM after 5 to 8 days by light microscopic analysis. It counts as functional, cell-based.
Data set [4] is described as follows: Antitumor activity against human M12 cells xenografted in athymic nude mouse assessed as reduction of tumor size at 0.3 mg/kg, iv administered once every fourth day for 16 days. The arrangement: scale not given: the % may be the effect or the level left. Format: functional.
Data set [5] has as its system M12. Put plainly: Inhibition of human M12 cells invasion after 16 hrs. Format: functional, cell-based.
The subject of a further data set is DU-145. Put plainly: Antiproliferative activity against human DU145 cells after 72 hrs by WST-1 assay. Format: functional, cell-based. On the technique in general: Tetrazolium assays rely on reduction of a dye to a coloured formazan, in cell work by metabolically active cells.
Data set [6] is described as follows: Inhibition of human M12 cells adhesion at 10 to 100 nM after 24 hrs. It counts as functional.
The subject of the next data set is PC-3. In words: Antiproliferative activity against human PC3 cells after 72 hrs by WST-1 assay. It counts as functional, cell-based.
Data set [7] can be described thus: Reduction of vimentin gene expression in human M12 cells at 1 uM after 8 days by confocal immunofluorescence microscopy. It counts as functional, cell-based.
The test system of data set [8] is M12. Put plainly: Antiproliferative activity against human M12 cells after 72 hrs by WST-1 assay. Format: functional, cell-based.
A short description of data set [9]: Inhibition of human M12 cells invasion at 50 to 500 nM after 16 hrs. Format: functional.
Data set [10] has as its system M12. Put plainly: Reversal of disorganized alpha6 integrin in human M12 cells at 1 uM after 8 days by confocal immunofluorescence microscopy. It counts as functional, cell-based.

With `CCCCCCCC/C=C\c1c(C)c(/C=C\CCCCCCCC)c2[n+](c1C)CCC2.O=C([O-])C(F)(F)F` [ANIBAMINE], the result (in the data set with M12 [1]; with M12 [3]; in data set [7]; with M12 [10]) was Active. The Activity entry in data set [2] was “Non-toxic”; in [4] it was 50%; in the data set on DU-145 it was “Dose-dependent effect”; with PC-3 it was “Dose-dependent effect”; with M12 [8] it was “Dose-dependent effect”. Moreover, in the data set on M12 [5], the inhibition entry was “Dose-dependent effect”. For the same compound, the “inhibition (INH)” value in data set [6] worked out at 26%; in data set [9], 42%.
